In paper PMC12461331, “Screening of Medicines for Malaria Venture Open Boxes Identifies Potent SARS-CoV‑2 Papain-like Protease (PL^pro) Inhibitors” (ACS Omega, 2025):
“And” between values parts separate entries of the source, which are not always exact repeats. Identical values can stand only once. Counter-ions that a name gives are not always drawn. Like-named read-outs stand apart in the source and are kept apart here.

Legend:
[1] = physchem; details: pH 7.4
[2] = target: PL^pro (Severe acute respiratory syndrome coronavirus 2, UniProt P0DTD1); details: 20 μM compound, 5 μM enzyme, average of triplicates with SD
[3] = female, BALB/c, mouse, 1 h, 2 μM, pH 7.4
[4] = Plasma stability; details: female, BALB/c, mouse, plasma, pH 7.4
[5] = physchem; details: 25 °C, kinetic from dmso stock
[6] = in vitro; details: PAMPA
[7] = in vitro; details: human, microsomes, pH 7.4
[8] = in vitro; details: CD1, mouse, microsomes, pH 7.4
[9] = Mouse liver microsomal stability assay; details: CD1, mouse, liver microsomes, pH 7.4
[10] = Human liver microsomal stability assay; details: human, liver microsomes, pH 7.4
[11] = tested on: HeLa-ACE2 cells; assay: cells; details: Homo sapiens; for AC50: HeLa-ACE2, read-out: Log AC50 (converted)
[12] = tested on: SARS-CoV-2; details: for Data Mode: Hela-ACE2 % Positive SARS-CoV-2; for S0 / Sinf / nHill: Hela-ACE2 % Positive SARS-CoV-2, curve fit
[13] = tested on: SARS-CoV-2; assay: microbe, parasite or virus in culture; details: for AC50: Severe acute respiratory syndrome coronavirus 2, HeLa-ACE2, read-out: Log AC50 (converted)
[14] = tested on: HeLa-ACE2 cells; details: for Data Mode / S0 / Sinf / nHill: Hela-ACE2 CoV-2 Total Cell count; for S0 / Sinf / nHill: curve fit; for HeLa-ACE2 Total Cell Efficacy (Sinf, note + or -): infected HeLa-ACE2 total cell count
[15] = in vitro; details: human, uninfected HeLa-ACE2 cells
[16] = tested on: uninfected HeLa-ACE2 cells; details: Hela-ACE2 Uninfected Cell Toxicity; for S0 / Sinf / nHill: curve fit; for qAC50: relation in column qAC50 Mode, unit not given
[17] = HeLa-ACE2, read-out: HeLa-ACE2 Total cells EC50
[18] = Severe acute respiratory syndrome coronavirus 2, HeLa-ACE2, read-out: CoV-2 EC50
[19] = Severe acute respiratory syndrome coronavirus 2, HeLa-ACE2, read-out: qAC50
[20] = uninfected HeLa-ACE2 CC50, supplement summary
[21] = uninfected HeLa-ACE2 CC50, uninfected HeLa-ACE2 cells, average of triplicates

Structure (SMILES) | chromatographic logD [1] | ΔT m [2] | plasma stability remaining 60 min [3] [%] | half-life at 2 μM [4] [h] | solubility kinetic at 24 h ([5]; pH 2, aqueous buffer) [µg/mL] | solubility kinetic at 24 h ([5]; pH 7.4, aqueous buffer) [µg/mL] | Papp at 5 h, 10 μM [6] [×10⁻⁶ cm/s] | microsomal CLint at 0.5 μM [7] [µL/min/mg] | microsomal CLint at 0.5 μM [8] [µL/min/mg] | half-life at 0.5 μM [9] [min] | half-life at 0.5 μM [10] [min] | EC50 [11, 17] [nM] | EC50 ([11]; HeLa-ACE2, read-out: qAC50) [nM] | CoV2 Efficacy (delta S0:Sinf) ([12]; HeLa-ACE2) | Data Mode [12] | S0 [12] | Sinf [12] | nHill [12] | AC50 [13] [nM] | Data Mode [14] | other results
COc1ccc(CNC(=O)[C@@H]2CCN([C@@H](C)c3cccc4ccccc34)C2)cc1 [Compound 15] | 4.24 | 0.40 ± 0.06 °C | 79.94 | 19.3 | > 23.9 | > 19.1 | 0.46 | 173 | 742 | 3.74 | 16.1 | – | – | – | – | – | – | – | – | – | –
COc1ccc(C[C@H](N)C(=O)N[C@H]2[C@@H](O)[C@H](n3cnc4c(N(C)C)ncnc43)O[C@@H]2CO)cc1 [Puromycin dihydrochloride, reference compound] | – | – | – | – | – | – | – | – | – | – | – | 1140 | 1140 | 109.643 | decreasing | 10.0167 | -99.6259 | 4 | 381 | decreasing | AC50 [11]: 1140 nM; SI (average CC50/average EC50) ([12]; supplement summary): 1.518; EC50 [13, 18]: 381 nM; EC50 [13, 19]: 381 nM; S0 [14]: -17.6223; Sinf [14]: -98.1852; nHill [14]: 4; HeLa-ACE2 Total Cell Efficacy (Sinf, note + or -) [14]: 4.000; AC50 at 24 h [15]: 578 nM; CC50 at 24 h [15, 20]: 578 nM; Data Mode [16]: decreasing; S0 [16]: -1.04; Sinf [16]: -99.1112; nHill [16]: 3.073; qAC50 [16]: 5.784e-7
COc1ccc(CC(=O)NC2CCN([C@@H](C)c3cccc4ccccc34)CC2)cc1 [Compound 7] | 4.27 | – | 95.21 | 116 | > 24.8 | > 15.9 | 1.03 | 205 | 378 | 7.33 | 13.5 | – | – | – | – | – | – | – | – | – | –
COc1ccc(CNC(=O)[C@H]2CCN([C@H](C)c3cccc4ccccc34)C2)cc1 [Compound 16] | 4.24 | 0.40 ± 0.08 °C | 88.71 | 28.9 | > 24.6 | > 19.5 | 0.53 | 254 | 267 | 10.4 | 10.9 | – | – | – | – | – | – | – | – | – | –
CC(c1cccc2ccccc12)N1CCC(C(=O)NCc2ccc(Cl)cc2)CC1 (centres unmarked) [Compound 13] | 4.7 | 6.15 °C and 6.1 ± 0.4 °C | 46.83 | 6.08 | > 24.4 | > 13.4 | 0.3 | 184 | 302 | 9.19 | 15.1 | > 9610 | > 9610 | 104.884 | decreasing | 4.884 | -100 | 3.857 | 3710 | increasing (weakly active) | AC50 [11]: > 9610 nM; SI (average CC50/average EC50) ([12]; HeLa-ACE2): 5; SI (average CC50/average EC50) ([12]; supplement summary): 5.083; Tags (tier) ([12]; tier of the screening summary): 3 (EC50< 10 µM, Efficacy >40%, SI > 5 or CC50 not reached at maximum concentration tested); EC50 [13, 18]: 3710 nM; EC50 ([13]; Severe acute respiratory syndrome coronavirus 2, HeLa-ACE2, read-out: SARS-CoV-2 EC50): 3700 ± 500 nM; inhibition at 9.61 µM ([13]; Severe acute respiratory syndrome coronavirus 2, HeLa-ACE2, read-out: inhibition in the highest concentration tested): > 50%; EC50 [13, 19]: 3710 nM; S0 [14]: -15.6144; Sinf [14]: 100; nHill [14]: 0.852; HeLa-ACE2 Total Cell Efficacy (Sinf, note + or -) [14]: 0.852; AC50 at 24 h [15]: 18900 nM; CC50 at 24 h [15, 20]: 18900 nM; CC50 at 24 h [15, 21]: 18800 ± 200 nM; Data Mode [16]: decreasing; S0 [16]: -6.029; Sinf [16]: -100; nHill [16]: 4; qAC50 [16]: 1.885e-5
Cc1cccc(/C=N/Nc2cc(N3CCOCC3)nc(OCCc3ccccn3)n2)c1 [Apilimod, reference compound] | – | – | – | – | – | – | – | – | – | – | – | > 2400 | > 2400 | 96.257 | decreasing | 0.02088 | -96.2358 | 1.796 | 25.6 | inactive | SI (average CC50/average EC50) ([12]; supplement summary): 222.534; EC50 [13, 18]: 26 nM; EC50 [13, 19]: 25.6 nM; AC50 at 24 h [15]: 5700 nM; CC50 at 24 h [15, 20]: 5700 nM; Data Mode [16]: decreasing; S0 [16]: -7.369; Sinf [16]: -100; nHill [16]: 1.671; qAC50 [16]: 5.705e-6
COc1ccc(CNC(=O)C2CCN(Cc3cccc4ccccc34)CC2)cc1 [Compound 1] | 4.18 | 0.40 ± 0.08 °C | 43.36 | 4.44 | > 24.9 | > 21.8 | 1 | 117 | 146 | 18.9 | 23.7 | – | – | – | – | – | – | – | – | – | –
C[C@@H](c1cccc2ccccc12)N1CCC(C(=O)NCc2ccncc2)CC1 (racemic) [Compound 10] | 3.32 | 4.65 °C and 4.6 ± 0.1 °C | 97.19 | – | > 17.3 | > 31 | 1.01 | 75.6 | 110 | 25.3 | 36.7 | > 9610 | > 9610 | 103.533 | decreasing (weakly active) | 3.533 | -100 | 4 | > 9610 | inactive | EC50 ([13]; Severe acute respiratory syndrome coronavirus 2, HeLa-ACE2, read-out: SARS-CoV-2 EC50, HeLa-ACE2 cells, average of triplicates): > 9610 nM; EC50 ([13]; Severe acute respiratory syndrome coronavirus 2, HeLa-ACE2, read-out: qAC50, Hela-ACE2 % Positive SARS-CoV-2, relation in column qAC50 Mode, unit inferred): > 9610 nM; CC50 at 24 h [15, 20]: > 39800 nM; CC50 at 24 h [15, 21]: > 39800 nM; Data Mode [16]: inactive; qAC50 [16]: > 3.984e-5
COc1ccc(CNC(=O)[C@@H]2CCN([C@H](C)c3cccc4ccccc34)C2)cc1 (stereo in doubt) [Compound 18] | 4.24 | – | 56.69 | 7.7 | > 25.2 | > 19.8 | 0.56 | 212 | 582 | 4.76 | 13.1 | – | – | – | – | – | – | – | – | – | –
CCC(CC)COC(=O)[C@H](C)N[P@](=O)(OC[C@H]1O[C@@](C#N)(c2ccc3c(N)ncnn23)[C@H](O)[C@@H]1O)Oc1ccccc1 [Remdesivir, reference compound] | – | – | – | – | – | – | – | – | – | – | – | 102 | 102 | 101.769 | decreasing | 1.9121 | -99.8572 | 1.898 | 95.2 | increasing | AC50 [11]: 102 nM; SI (average CC50/average EC50) ([12]; supplement summary): 22.589; EC50 [13, 18]: 95 nM; EC50 [13, 19]: 95.2 nM; S0 [14]: -15.3429; Sinf [14]: 34.6571; nHill [14]: 2.142; HeLa-ACE2 Total Cell Efficacy (Sinf, note + or -) [14]: 2.142; AC50 at 24 h [15]: 2150 nM; CC50 at 24 h [15, 20]: 2150 nM; Data Mode [16]: decreasing; S0 [16]: 13.7985; Sinf [16]: -53.8717; nHill [16]: 1.539; qAC50 [16]: 2.1501e-6
